Counter-ions that a name gives are not always drawn.
Experiments:
Format in all cases: biochemical
HSD17B1 = target: T1, HSD17B1 (Homo sapiens, UniProt P14061); assay: Steroid substrate panel against HSD17B family member B1; conditions: substrate at 50 μM; estradiol set as 100%
T1 construct: made in house
T1 sequence (P14061 1-328): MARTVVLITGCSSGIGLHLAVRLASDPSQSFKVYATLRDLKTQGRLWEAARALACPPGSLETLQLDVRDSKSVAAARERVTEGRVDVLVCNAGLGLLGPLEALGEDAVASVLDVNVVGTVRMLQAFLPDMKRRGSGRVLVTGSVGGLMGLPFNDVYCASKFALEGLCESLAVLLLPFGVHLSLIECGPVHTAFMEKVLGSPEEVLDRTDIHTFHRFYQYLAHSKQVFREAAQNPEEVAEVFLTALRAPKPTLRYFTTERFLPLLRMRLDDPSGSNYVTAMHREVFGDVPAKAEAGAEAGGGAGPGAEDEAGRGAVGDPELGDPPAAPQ
Protocol: (§1) To understand the functional consequences of premature truncation of the HSD17B13 protein due to rs72613567:TA (the associated variant, rs72613567, is an insertion of an adenine adjacent to the donor splice site of exon six (TA allele)), the enzymatic activity of isoforms A and D was evaluated in vitro using recombinant protein and nicotinamide […] dinucleotide as cofactor. Reactions were performed in a final volume of 40 μl of assay buffer (0.2 M Tris-HCl, pH 7.5) which contained 500 μM NAD^+, 5 μM bioactive lipid or 50 μM steroid (all in a final concentration of 5% DMSO), and 100 ng of recombinant human HSD17B13. Reactions were incubated for 3 hours, at 23° C., after which an equal volume detection reagent was added. Following a 1 hour incubation at 23° C., the relative light units (RLUs) were measured on an Envision Plate Reader (Perkin Elmer). Raw RLU values were normalized as percent of control (50 μM estradiol) following subtraction of negative control (5% DMSO) using the following formula: Percent of control (POC)=100×(Sample (RLU)−Negative CTRLaverage)/(Positive CTRLaverage−Negative CTRLaverage).
(§2) In order to determine specificity of compounds with inhibitory activity against HSD17B13, assays for selected members of the HSD17B family which includes HSD17B1-HSD17B14 were established. As a first step, selected family members were expressed, purified and tested for activity a using a steroid substrate panel. Substrates from the steroid panel were tested at 50 μM, using the standard assay protocol. Activity against the substrates for each HSD17B family member were normalized to Percent of Control (POC). The control, estradiol, was set as 100%.

HSD17B2 = target: T2, HSD17B2 (Homo sapiens, UniProt P37059); assay: Steroid substrate panel against HSD17B family member B2; conditions: substrate at 50 μM; estradiol set as 100%
T2 construct: made in house
T2 sequence (P37059 1-387): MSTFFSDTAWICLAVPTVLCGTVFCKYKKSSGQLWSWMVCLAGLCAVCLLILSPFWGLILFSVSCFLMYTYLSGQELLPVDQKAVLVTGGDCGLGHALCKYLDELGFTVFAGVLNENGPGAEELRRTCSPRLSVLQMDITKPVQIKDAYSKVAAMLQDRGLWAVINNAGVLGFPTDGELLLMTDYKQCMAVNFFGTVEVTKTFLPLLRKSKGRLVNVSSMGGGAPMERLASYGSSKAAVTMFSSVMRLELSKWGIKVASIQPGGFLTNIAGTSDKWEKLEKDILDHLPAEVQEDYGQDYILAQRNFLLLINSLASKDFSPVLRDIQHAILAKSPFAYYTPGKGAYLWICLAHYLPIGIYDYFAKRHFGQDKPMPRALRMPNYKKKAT
Protocol: as §1, §2

HSD17B4 = target: T3, HSD17B4 (Homo sapiens, UniProt P51659); assay: Steroid substrate panel against HSD17B family member B4; conditions: substrate at 50 μM; estradiol set as 100%
T3 construct: made in house
T3 sequence (P51659 1-736): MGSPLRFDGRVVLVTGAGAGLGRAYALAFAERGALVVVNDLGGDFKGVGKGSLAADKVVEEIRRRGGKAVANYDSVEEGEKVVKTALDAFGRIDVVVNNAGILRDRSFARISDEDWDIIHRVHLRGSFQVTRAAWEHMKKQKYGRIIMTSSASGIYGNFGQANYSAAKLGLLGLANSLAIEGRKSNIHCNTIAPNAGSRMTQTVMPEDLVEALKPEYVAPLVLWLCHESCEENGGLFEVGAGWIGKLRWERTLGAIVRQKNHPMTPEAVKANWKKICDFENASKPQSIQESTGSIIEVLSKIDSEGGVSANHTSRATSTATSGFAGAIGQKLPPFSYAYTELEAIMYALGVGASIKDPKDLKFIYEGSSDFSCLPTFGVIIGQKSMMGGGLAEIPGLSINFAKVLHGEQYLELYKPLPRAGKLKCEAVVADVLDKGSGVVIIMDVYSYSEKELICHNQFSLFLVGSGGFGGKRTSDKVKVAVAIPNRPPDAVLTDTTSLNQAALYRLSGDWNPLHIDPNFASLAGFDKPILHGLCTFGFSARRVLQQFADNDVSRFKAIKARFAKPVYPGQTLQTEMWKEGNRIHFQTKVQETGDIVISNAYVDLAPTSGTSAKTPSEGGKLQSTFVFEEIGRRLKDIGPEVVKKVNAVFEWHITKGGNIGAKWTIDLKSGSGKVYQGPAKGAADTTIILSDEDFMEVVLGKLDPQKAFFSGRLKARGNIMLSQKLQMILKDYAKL
Protocol: as §1, §2

HSD17B5 = target: T4, HSD17B5 (Homo sapiens, UniProt P42330); assay: Steroid substrate panel against HSD17B family member B5; conditions: substrate at 50 μM; estradiol set as 100%
T4 construct: made in house
T4 sequence (P42330 1-323): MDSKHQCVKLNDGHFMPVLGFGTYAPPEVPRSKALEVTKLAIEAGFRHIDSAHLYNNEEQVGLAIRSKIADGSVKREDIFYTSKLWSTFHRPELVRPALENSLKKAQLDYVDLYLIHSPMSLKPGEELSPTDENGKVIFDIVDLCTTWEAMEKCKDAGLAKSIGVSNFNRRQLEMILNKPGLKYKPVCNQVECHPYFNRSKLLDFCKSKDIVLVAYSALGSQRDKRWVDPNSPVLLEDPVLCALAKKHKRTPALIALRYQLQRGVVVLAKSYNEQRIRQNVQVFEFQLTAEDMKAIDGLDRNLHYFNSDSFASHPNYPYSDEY
Protocol: as §1, §2

HSD17B10 = target: T5, HSD17B10 (Homo sapiens, UniProt Q99714); assay: Steroid substrate panel against HSD17B family member B10; conditions: substrate at 50 μM; estradiol set as 100%
T5 construct: made in house
T5 sequence (Q99714 1-261): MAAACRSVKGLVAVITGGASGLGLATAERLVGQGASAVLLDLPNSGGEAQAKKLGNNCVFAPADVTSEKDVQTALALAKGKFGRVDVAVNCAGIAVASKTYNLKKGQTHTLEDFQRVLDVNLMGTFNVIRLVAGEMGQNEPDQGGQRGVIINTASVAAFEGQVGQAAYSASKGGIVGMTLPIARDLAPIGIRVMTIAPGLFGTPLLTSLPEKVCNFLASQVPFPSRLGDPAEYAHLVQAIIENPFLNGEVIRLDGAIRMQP
Protocol: as §1, §2

HSD17B11 = target: T6, HSD17B11 (Homo sapiens, UniProt Q8NBQ5); assay: Steroid substrate panel against HSD17B family member B11; conditions: substrate at 50 μM; estradiol set as 100%
T6 construct: made in house
T6 sequence (Q8NBQ5 20-300): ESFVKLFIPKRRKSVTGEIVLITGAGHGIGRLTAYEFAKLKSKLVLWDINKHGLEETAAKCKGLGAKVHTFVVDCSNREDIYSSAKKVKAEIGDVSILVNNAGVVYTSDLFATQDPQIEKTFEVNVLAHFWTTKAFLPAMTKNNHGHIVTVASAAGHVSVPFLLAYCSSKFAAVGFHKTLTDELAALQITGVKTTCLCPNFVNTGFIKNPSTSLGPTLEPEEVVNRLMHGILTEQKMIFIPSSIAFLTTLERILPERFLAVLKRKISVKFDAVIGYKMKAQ
Protocol: as §1, §2

human HSD17B13 = target: T7, human HSD17B13 (Homo sapiens, UniProt Q7Z5P4); assay: Substrate screening of steroid and bioactive lipid libraries against purified recombinant HSD17B13 (NADH-linked luciferase assay); conditions: for HSD17B13 Enzymatic Activity Relative Light Units: 500 μM NAD+, 100 ng enzyme, 3 hours at 23° C.; for HSD17B13 Enzymatic Activity Percent Estradiol Control: normalized to 50 μM estradiol after subtraction of 5% DMSO
T7 sequence (Q7Z5P4 20-300): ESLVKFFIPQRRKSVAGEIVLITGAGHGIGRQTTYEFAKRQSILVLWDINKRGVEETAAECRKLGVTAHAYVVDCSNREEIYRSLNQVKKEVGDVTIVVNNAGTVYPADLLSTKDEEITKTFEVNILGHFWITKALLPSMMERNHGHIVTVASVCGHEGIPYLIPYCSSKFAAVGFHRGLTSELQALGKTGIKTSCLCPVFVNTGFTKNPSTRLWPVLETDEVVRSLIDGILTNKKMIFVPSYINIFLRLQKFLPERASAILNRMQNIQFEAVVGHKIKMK
Method in brief: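 Substrates (bioactive lipids 5 μM, steroids 50 μM; 5% DMSO) tested with 500 μM NAD+ and 100 ng recombinant human HSD17B13 in 0.2 M Tris-HCl pH 7.5, 3 h, 23° C. Luminescent NADH detection followed 1 h later; RLU normalized to estradiol (50 μM, 100%) and DMSO (0%) controls.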

[1] = Bioactive Lipid Library, 5 μM bioactive lipid (Estradiol Control 50 μM)
[2] = Bioactive Lipid Library, 5 μM bioactive lipid

Compound	HSD17B13 Enzymatic Activity Relative Light Units (human HSD17B13; [1]) [RLU]	HSD17B13 Enzymatic Activity Percent Estradiol Control (human HSD17B13; [2]) [%]	further results
C[C@]12CC[C@@H](O)C[C@@H]1CC[C@@H]1[C@@H]2CC[C@]2(C)[C@@H](O)CC[C@@H]12 [3a-androstanediol]			Percent of Control (POC), B1 (HSD17B1): 0.0%; Percent of Control (POC), B2 (HSD17B2): 6.2%; Percent of Control (POC), B4 (HSD17B4): 16.4%; Percent of Control (POC), B5 (HSD17B5): 196%; Percent of Control (POC), B10 (HSD17B10): −0.4%; Percent of Control (POC), B11 (HSD17B11): 0.0%
CCCCC[C@H](O)/C=C/[C@H]1C=CC(=O)[C@@H]1CCCCCCC(=O)NCCCCCNC(=O)CCCC[C@@H]1SC[C@@H]2NC(=O)N[C@@H]21 [Prostaglandin A1-biotin]	309320	2.07	
CCCCC[C@H](O)/C=C/[C@@H]1[C@H]2C/C(=C/CCCC(=O)O)C[C@H]2C[C@H]1O [Carbaprostacyclin]	380280	7.68	
O=C(O)CCC/C=C\C[C@H]1C(=O)C[C@@H](O)[C@@H]1/C=C/[C@@H](O)CCCCCO [20-hydroxy Prostaglandin E2]	348240	5.15	
CCCCC[C@H](O)/C=C/C=C\C=C\[C@@H](O)C/C=C\CCCC(=O)O [8(S),15(S)-DiHETE]	410440	9.19	
Ptdlns-(4,5)-P2 (1,2-dipalmitoyl) (ammonium salt)	24120	−22.73	
CCCCC/C=C\C[C@H]1O[C@H]1C/C=C\C/C=C\CCCC(=O)NCCO [11(12)-EET Ethanolamide]	440800	8.74	
CCCCC/C=C\C[C@@H](O)/C=C/C=C\CCC(=O)O [tetranor-12(R)-HETE]	708640	31.37	
CC/C=C\CC1OC1C/C=C\C/C=C\C/C=C\CCCC(=O)O (racemic) [(±)14(15)-EpETE]	306600	1.86	
O=P(O)(O)OC1[C@@H](O)[C@@H](O)C(OP(=O)(O)O)[C@H](O)[C@H]1O (stereo partly drawn) [D-myo-Inositol-1,4-diphosphate (sodium salt)]	439280	8.63	
O=P(O)(O)O[C@@H]1[C@@H](OP(=O)(O)O)[C@@H](OP(=O)(O)O)[C@@H](O)[C@H](O)[C@H]1OP(=O)(O)O [D-myo-Inositol-2,3,4,5-tetraphosphate (ammonium salt)]	372320	3.57	
CC/C=C\C/C=C\C=C\[C@H](O)C/C=C\C/C=C\CCCC(=O)O [11(R)-HEPE]	940920	48.64	
CC/C=C\C[C@H](O)/C=C/[C@H]1[C@H](O)CC(=O)[C@@H]1C/C=C\CCCC(=O)O [Prostaglandin E3]	379960	7.66	
O=c1cc(-c2ccc(O)cc2)oc2cc(O)cc(O)c12 [Apigenin]			HSD17B13 Enzymatic Activity Relative Light Units (human HSD17B13; Steroid Library, 50 μM steroid): 24440 RLU; HSD17B13 Enzymatic Activity Percent Estradiol Control (human HSD17B13; Steroid Library, 50 μM steroid): −2.38%

From US11479802B2, “Assays for screening activity of modulators of members of the hydroxy steroid (17-beta) dehydrogenase (HSD17B) family” (Regeneron Pharmaceuticals, Inc., priority 2017, dated 2022)
